Records with an inconclusive call do not appear. Calls of active or inactive are those of the source.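 How the source made its calls: active means Compounds that reduce signal, with fitted half-maximal dose at or under twice the top valid tested dose; inconclusive means Poor fit, or flat curve losing 30 to 70% of signal; inactive means Potency past limit, flat within 30%, or opposite direction.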
experiment: viability loss in HEK293T cells – cell-based, ATP luminescence, cherry-pick samples, cytotoxicity control, dose response (AID 687005); settings: HEK293T viability, ATP luminescence (CellTiter-Glo), 48 h; at 23.5 µM (top of the series)

Q: Which activity change, negative = cytotoxicity does the source give for `Cc1cc(C(=O)Nc2ccc3c(c2)C(=O)N(C)[C@H]2CC[C@@H](CC(=O)N[C@@H](C)c4ccccc4)O[C@H]2CO3)no1` here?
A: -36.7% (inactive)

Q: For `C[C@H](CO)N1C[C@H](C)[C@@H](CN(C)C(=O)Nc2ccc(F)cc2)Oc2c(NS(=O)(=O)c3ccccc3)cccc2C1=O`, which activity change, negative = cytotoxicity is on record?
A: -4.44% (inactive)

same assay, conditions: HEK293T viability, ATP luminescence (CellTiter-Glo), 48 h; at 26 µM (top of the series)

Q: For `CCNC(=O)C[C@@H]1CC[C@H]2[C@@H](COC[C@@H](O)CN2S(=O)(=O)c2ccccc2F)O1`, which activity change, negative = cytotoxicity is on record?
A: 51.2% (inactive)

Q: With `C[C@@H]1CN([C@H](C)CO)S(=O)(=O)c2ccc(C#C[C@@H](C)O)cc2O[C@@H]1CN(C)Cc1ccncc1` as the compound, how does the activity change, negative = cytotoxicity read?
A: -20.8% (inactive)

Q: With `Cc1ccc(S(=O)(=O)Nc2ccc3c(c2)C(=O)N([C@@H](C)CO)C[C@H](C)[C@H](CN(C)S(=O)(=O)c2ccc(Cl)cc2)OCCCC[C@@H](C)O3)cc1` as the compound, how does the activity change, negative = cytotoxicity read?
A: -26.9% (inactive)

Q: For `CN(C)C(=O)c1ccc(-c2ccc([C@H]3[C@H](CO)N4CCCCN(CCC(F)(F)F)C[C@@H]34)cc2)cc1`, which activity change, negative = cytotoxicity is on record?
A: -23.6% (inactive)

Q: Which activity change, negative = cytotoxicity does the source give for `C[C@@H]1CN([C@@H](C)CO)C(=O)c2cc(NC(=O)C3CCCCC3)ccc2O[C@@H](C)CCCCO[C@@H]1CN(C)C(=O)NC1CCCCC1` here?
A: 8.91% (inactive)

Q: For `O=C(C[C@@H]1CC[C@H]2[C@@H](COC[C@H](O)CN2Cc2ccccc2F)O1)NC1CCC1`, which activity change, negative = cytotoxicity is on record?
A: -8.5% (inactive)

Q: Which activity change, negative = cytotoxicity does the source give for `CCCNC(C)C(=O)Nc1ccccc1C` (stereo unspecified) here?
A: -25.6% (inactive)

Q: For `O=C(C[C@H]1C[C@@H]2c3cc(NC(=O)c4cccnc4)ccc3O[C@@H]2[C@@H](CO)O1)NCCc1ccccc1`, which activity change, negative = cytotoxicity is on record?
A: -44.8% (inactive)

Q: With `Cc1ccccc1OCC(=O)NCc1ccccc1` as the compound, how does the activity change, negative = cytotoxicity read?
A: 2.49% (inactive)

Q: For `C/C=C/c1ccc([C@@H]2[C@@H](CNC(=O)c3ccccc3)N(C(C)=O)[C@H]2CO)cc1`, which activity change, negative = cytotoxicity is on record?
A: 13.1% (inactive)

Q: Which activity change, negative = cytotoxicity does the source give for `COc1ccccc1NC(=O)N[C@@H]1CC[C@@H](CCn2cc(C3(O)CCCC3)nn2)O[C@H]1CO` here?
A: 9.21% (inactive)

Q: Which activity change, negative = cytotoxicity does the source give for `COc1ccc(N2CCN(C(=O)CSc3ncnc4c3cnn4-c3ccc(OC)cc3)CC2)cc1` here?
A: -4.11% (inactive)

Q: With `Cc1cccc(C)c1NC(=S)NN(Cc1ccccc1)c1ccccc1` as the compound, how does the activity change, negative = cytotoxicity read?
A: 15.7% (inactive)

Q: Which activity change, negative = cytotoxicity does the source give for `Cc1noc(C)c1S(=O)(=O)N(C)C[C@@H]1Oc2c(NC(=O)c3cnccn3)cccc2C(=O)N([C@@H](C)CO)C[C@@H]1C` here?
A: 6.5% (inactive)

Q: Which activity change, negative = cytotoxicity does the source give for `C[C@@H]1CN([C@H](C)CO)C(=O)c2cc(-c3ccc(F)cc3)cnc2O[C@H]1CN(C)CC1CCCCC1` here?
A: 6.84% (inactive)

Q: Which activity change, negative = cytotoxicity does the source give for `CCNC(=O)CN(c1ccccc1)S(=O)(=O)c1ccc(Cl)cc1` here?
A: -16.3% (inactive)

Q: Which activity change, negative = cytotoxicity does the source give for `C/C=C/c1ccc([C@@H]2[C@@H](CNC(=O)C3CC3)N(C(=O)CC)[C@H]2CO)cc1` here?
A: -5.25% (inactive)

Q: For `O=C1CCC(C(=O)Nc2ccc([N+](=O)[O-])cc2)N1` (stereo unspecified), which activity change, negative = cytotoxicity is on record?
A: -9.02% (inactive)

Q: With `C[C@H]1CN([C@@H](C)CO)C(=O)Cc2cc(NC(=O)Nc3cccc4ccccc34)ccc2O[C@H]1CN(C)S(=O)(=O)c1cccs1` as the compound, how does the activity change, negative = cytotoxicity read?
A: -25.9% (inactive)

Q: With `COc1cccc(S(=O)(=O)Nc2ccc3c(c2)[C@@H]2C[C@H](CC(=O)NC4CCCCC4)O[C@H](CO)[C@@H]2O3)c1` as the compound, how does the activity change, negative = cytotoxicity read?
A: -27.9% (inactive)

Q: For `C[C@H]1CN([C@@H](C)CO)C(=O)Cc2cc(NS(=O)(=O)c3ccc(F)cc3)ccc2O[C@@H]1CN(C)S(=O)(=O)c1ccc(F)cc1`, which activity change, negative = cytotoxicity is on record?
A: -11.2% (inactive)

Q: For `C[C@@H]1CN([C@@H](C)CO)S(=O)(=O)c2ccc(C#Cc3ccc(F)cc3)cc2O[C@H]1CN(C)C(=O)NC1CCCC1`, which activity change, negative = cytotoxicity is on record?
A: 39.2% (inactive)

Q: With `C[C@H](O)C#Cc1cnc2c(c1)C(=O)N([C@@H](C)CO)C[C@@H](C)[C@@H](CN(C)C(=O)Cc1ccncc1)O2` as the compound, how does the activity change, negative = cytotoxicity read?
A: 0.451% (inactive)

Q: Which activity change, negative = cytotoxicity does the source give for `Cc1noc(C)c1S(=O)(=O)Nc1ccc2c(c1)CC(=O)N([C@@H](C)CO)C[C@H](C)[C@@H](CN(C)S(=O)(=O)c1cn(C)cn1)O2` here?
A: 50.4% (inactive)
